Values quoted from earlier work as cited in patent publication US20060240013A1, “Diagnostics and therapeutics for diseases associated with bile acid g-protein-coupled receptor 37 (bg37)” (BAYER HEALTHCARE AG, priority 2002, published 2006).

Target: T1, BG37 receptor (Homo sapiens, UniProt Q8TDU6)
T1 sequence (Q8TDU6 1-330): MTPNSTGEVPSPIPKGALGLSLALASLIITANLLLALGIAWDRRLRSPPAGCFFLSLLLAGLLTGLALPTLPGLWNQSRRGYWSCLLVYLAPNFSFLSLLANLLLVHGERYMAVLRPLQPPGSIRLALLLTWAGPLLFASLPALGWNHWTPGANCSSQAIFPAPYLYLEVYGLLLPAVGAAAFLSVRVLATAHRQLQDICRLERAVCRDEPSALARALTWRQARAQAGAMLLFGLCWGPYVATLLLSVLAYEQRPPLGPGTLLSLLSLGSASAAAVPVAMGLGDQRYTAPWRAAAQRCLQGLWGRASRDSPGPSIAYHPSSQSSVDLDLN
Details: intracellular cAMP levels modulated through BG37 receptor; Maruyama et al. (2002)

SMILES: C[C@H](CCC(=O)O)[C@H]1CC[C@H]2[C@@H]3[C@H](O)C[C@@H]4C[C@H](O)CC[C@]4(C)[C@H]3CC[C@]12C [chenodeoxycholic acid]
- rank order of potency of bile acids: lithocholic acid>deoxycholic acid>chenodeoxycholic acid>cholic acid

SMILES: C[C@H](CCC(=O)O)[C@H]1CC[C@H]2[C@@H]3[C@H](O)C[C@@H]4C[C@H](O)CC[C@]4(C)[C@H]3C[C@H](O)[C@]12C [cholic acid]
- rank order of potency of bile acids: lithocholic acid>deoxycholic acid>chenodeoxycholic acid>cholic acid
